Data on nine molecules can be found in patent US20090131409A1, “1,4,5,6,7,8-HEXAHYDRO -PYRROLO[2,3-d]AZEPINES AND -IMIDAZO[4,5-d]AZEPINES AS MODULATORS OF NUCLEAR RECEPTOR ACTIVITY” (Wyeth, priority 2007, published 2009).

This experiment has as its target T1, Gal4/hFXR fusion protein (Homo sapiens, UniProt Q96RI1).
T1 sequence (Q96RI1 262-486 limits assumed): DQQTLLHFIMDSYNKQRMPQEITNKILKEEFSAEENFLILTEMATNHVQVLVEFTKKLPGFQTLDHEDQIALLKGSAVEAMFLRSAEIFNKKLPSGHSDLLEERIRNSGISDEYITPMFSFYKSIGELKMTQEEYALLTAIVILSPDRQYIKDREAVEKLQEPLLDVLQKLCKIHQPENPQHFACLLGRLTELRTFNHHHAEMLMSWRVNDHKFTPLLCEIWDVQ
As to the kind of experiment: Gal4/hFXR fusion protein agonist activity in human 293 cells (luciferase reporter). In general terms: Reporter assays use an easily measured gene product as a stand-in for the process of interest.
As to `CC(C)OC(=O)C1CN(C(=O)c2cccc(C(F)(F)F)c2)CC(C)(C)c2cc(C#N)[nH]c21` (stereo not drawn) [iso-propyl 2-cyano-4,4-dimethyl-6-[3-(trifluoromethyl)benzoyl]-1,4,5,6,7,8-hexahydropyrrolo[2,3-d]azepine-8-carboxylate], the EC50 was 2.7 µM. `CC(C)OC(=O)C1CN(C(=O)c2ccc(C#N)cc2)CC(C)(C)c2cc(C#N)[nH]c21` (stereo not drawn) [iso-propyl 2-cyano-6-(4-cyanobenzoyl)-4,4-dimethyl-1,4,5,6,7,8-hexahydropyrrolo[2,3-d]azepine-8-carboxylate] yielded a half-maximal effective concentration (EC50) of 5.7 µM. As for `CC(C)OC(=O)C1CN(C(=O)C2CCCCC2)CC(C)(C)c2cc(C#N)[nH]c21` (stereo not drawn) [iso-propyl 2-cyano-6-(cyclohexylcarbonyl)-4,4-dimethyl-1,4,5,6,7,8-hexahydropyrrolo[2,3-d]azepine-8-carboxylate], the figure is 1.9 µM. `CC(C)OC(=O)C1CN(C(=O)c2cccc(Cl)c2)CC(C)(C)c2cc(C#N)[nH]c21` (stereo not drawn) [iso-propyl 6-(3-chlorobenzoyl)-2-cyano-4,4-dimethyl-1,4,5,6,7,8-hexahydropyrrolo[2,3-d]azepine-8-carboxylate]: the EC50 was determined as 1.3 µM. For the molecule `CC(C)OC(=O)C1CN(C(=O)c2ccc(Cl)cc2)CC(C)(C)c2cc(C#N)[nH]c21` (stereo not drawn) [iso-propyl 6-(4-chlorobenzoyl)-2-cyano-4,4-dimethyl-1,4,5,6,7,8-hexahydropyrrolo[2,3-d]azepine-8-carboxylate], the EC50 came out at 4.1 µM. Regarding `CC(C)OC(=O)C1CN(C(=O)C2CCOCC2)CC(C)(C)c2cc(C#N)[nH]c21` (stereo not drawn) [isopropyl 2-cyano-4,4-dimethyl-6-(tetrahydro-2H-pyran-4-ylcarbonyl)-1,4,5,6,7,8-hexahydropyrrolo[2,3-d]azepine-8-carboxylate], the half-maximal effective concentration (EC50) was determined as 3.3 µM.

With `CC(C)OC(=O)C1CN(C(=O)c2ccc(F)c(F)c2)CC(C)(C)c2cc(C#N)[nH]c21` (stereo not drawn) [isopropyl 2-cyano-6-(3,4-difluorobenzoyl)-4,4-dimethyl-1,4,5,6,7,8-hexahydropyrrolo[2,3-d]azepine-8-carboxylate], the half-maximal effective concentration (EC50) stood at 0.28 µM. Take `CC(C)OC(=O)C1CN(C(=O)c2cccc(F)c2)CC(C)(C)c2cc(C#N)[nH]c21` (stereo not drawn) [isopropyl 2-cyano-6-(3-fluorobenzoyl)-4,4-dimethyl-1,4,5,6,7,8-hexahydropyrrolo[2,3-d]azepine-8-carboxylate]: a half-maximal effect (EC50) was put at 1.3 µM. As for `CC(C)OC(=O)C1CN(C(=O)c2ccc(F)cc2)CC(C)(C)c2cc(C#N)[nH]c21` (stereo not drawn) [isopropyl 2-cyano-6-(4-fluorobenzoyl)-4,4-dimethyl-1,4,5,6,7,8-hexahydropyrrolo[2,3-d]azepine-8-carboxylate], the figure is 0.64 µM.

Usually EC50 stands for the concentration that produces a half-maximal response. Read a high EC50 as lower potency in that assay.
